# From BindingDB's records for doi:10.7270/Q2GM89G6 (n/a, 1995)
# Target: Protein kinase C gamma type (Rattus norvegicus, UniProt P63319)
# Assay: Inhibition of [3H]phorbol-12,13-dibutyrate (PDBu) binding to rat brain protein kinase C gamma regulatory domain
row,IC50,SMILES
1,10 µM,Cc1cc2ccc3[nH]cc4c3c2n1[C@@H](C(C)C)C(=O)N[C@H](CO)C4
2,24 µM,CC(C)[C@H]1C(=O)N[C@H](CO)Cc2c[nH]c3ccc4c(c23)N1[C@@H](C)C4
3,1.26 µM,CC(C)[C@H]1C(=O)N[C@H](CO)Cc2c[nH]c3ccc4c(c23)N1[C@H](C)C4

row,SMILES,IC50
1,Cc1ccc2[nH]cc3c2c1N(C)[C@@H](C(C)C)C(=O)N[C@H](CO)C3,> 100 µM
2,CC(C)[C@H]1C(=O)N[C@H](CO)Cc2c[nH]c3cccc(c23)N1C,2.75 µM
